Data as given in patent publication US10913738B2 (BRISTOL-MYERS SQUIBB COMPANY, priority 2017, dated 2021).
Like-named read-outs stand apart in the source and are kept apart here.

Columns and labels:
[1] = test system: MLKL phosphorylation in HT29-L23 human colorectal adenocarcinoma cells; test: MLKL Phosphorylation High-Content Assay; assay type: cell-based; conditions: Homo sapiens
How it was run: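 Cells incubated six hours at 37° C., then phospho-MLKL (S358) immunostained overnight at 4° C. and imaged by high-content microscopy. Phosphorylation quantified as mean circ-ring average intensity ratio; IC50 and Ymax from 4-parameter logistic fits.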

[2] = molecular target: T1, His-GST-TVMV-hRIPK1(1-324) (Homo sapiens, UniProt Q13546); test: RIPK1 HTRF Binding Assay
T1 construct: The coding region of human RIPK1(1-324) flanked by NdeI site at 5′ end; made in house; host or cells: Spodoptera frugiperda (Sf9) insect cells, baculovirus
T1 sequence (Q13546 1-324): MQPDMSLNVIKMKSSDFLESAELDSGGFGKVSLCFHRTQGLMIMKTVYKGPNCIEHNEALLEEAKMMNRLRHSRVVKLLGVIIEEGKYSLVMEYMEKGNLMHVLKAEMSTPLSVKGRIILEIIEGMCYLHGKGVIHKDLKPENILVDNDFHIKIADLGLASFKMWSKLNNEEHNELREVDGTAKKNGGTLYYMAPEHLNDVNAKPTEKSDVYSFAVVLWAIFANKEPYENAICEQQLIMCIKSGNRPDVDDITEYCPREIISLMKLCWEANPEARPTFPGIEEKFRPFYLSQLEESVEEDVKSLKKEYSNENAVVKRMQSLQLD

[3] = x marks IC50 class <20 nM, read-out: pMLKL cell activity <20 nM
[4] = x marks IC50 class <20 nM, read-out: RIPK1 HTRF binding <20 nM
[5] = x marks IC50 class 20-200 nM, read-out: pMLKL cell activity 20-200 nM
[6] = x marks IC50 class 20-200 nM, read-out: RIPK1 HTRF binding 20-200 nM
[7] = x marks IC50 class >200 nM, read-out: pMLKL cell activity >200 nM
[8] = x marks IC50 class >200 nM, read-out: RIPK1 HTRF binding >200 nM

Structure (SMILES)	IC50 [1, 3]	IC50 [2, 4]	IC50 [1, 5]	other results
COc1ncc(-c2ccn3nc(N)nc3c2)cc1C(=O)NCc1cccnc1OC1CCCC1 [Example 135, 5-{2-amino-[1,2,4]triazolo[1,5-a]pyridin-7-yl}-N-{[2-(cyclopentyloxy)pyridin-3-yl]methyl}-2-methoxypyridine-3-carboxamide]	< 20 nM	< 20 nM	–	–
COc1ncc(-c2ccn3nc(N)nc3c2)cc1C(=O)NCc1cccnc1OCC1CCC1 [Example 137, 5-{2-amino-[1,2,4]triazolo[1,5-a]pyridin-7-yl}-N-{[2-(cyclobutylmethoxy)pyridin-3-yl]methyl}-2-methoxypyridine-3-carboxamide]	–	< 20 nM	20 to 200 nM	–
COc1ncc(-c2ccn3nc(N)nc3c2)cc1C(=O)NCc1ccccc1OCC1CCCC1 [Example 138, 5-{2-amino-[1,2,4]triazolo[1,5-a]pyridin-7-yl}-N-{[2-(cyclopentylmethoxy)phenyl]methyl}-2-methoxypyridine-3-carboxamide]	–	< 20 nM	20 to 200 nM	–
COc1ncc(-c2ccn3nc(N)nc3c2)cc1C(=O)NCc1cccc(OC(C)C)c1 [Example 139, 5-{2-amino-[1,2,4]triazolo[1,5-a]pyridin-7-yl}-2-methoxy-N-{[3-(propan-2-yloxy)phenyl]methyl}pyridine-3-carboxamide]	–	< 20 nM	20 to 200 nM	–
COc1ncc(-c2ccn3nc(N)nc3c2)cc1C(=O)NCc1ccccc1OC1CCOC1 (centres unmarked) [Example 140, 5-{2-amino-[1,2,4]triazolo[1,5-a]pyridin-7-yl}-2-methoxy-N-{[2-(oxolan-3-yloxy)phenyl]methyl}pyridine-3-carboxamide]	–	< 20 nM	20 to 200 nM	–
COc1ncc(-c2ccn3nc(N)nc3c2)cc1C(=O)NCc1ncccc1OC1CCCC1 [Example 141, 5-{2-amino-[1,2,4]triazolo[1,5-a]pyridin-7-yl}-N-{[3-(cyclopentyloxy)pyridin-2-yl]methyl}-2-methoxypyridine-3-carboxamide]	–	< 20 nM	20 to 200 nM	–
COc1ncc(-c2ccn3nc(N)nc3c2)cc1C(=O)NCc1cc(F)ccc1OC1CCCC1 [Example 142, 5-{2-amino-[1,2,4]triazolo[1,5-a]pyridin-7-yl}-N-{[2-(cyclopentyloxy)-5-fluorophenyl]methyl}-2-methoxypyridine-3-carboxamide]	< 20 nM	< 20 nM	–	–
COc1ncc(-c2ccn3nc(N)nc3c2)cc1C(=O)NCc1ccccc1SC(C)C [Example 143, 5-{2-amino-[1,2,4]triazolo[1,5-a]pyridin-7-yl}-2-methoxy-N-{[2-(propan-2-ylsulfanyl)phenyl]methyl}pyridine-3-carboxamide]	< 20 nM	< 20 nM	–	–
COc1ncc(-c2ccn3nc(N)nc3c2)cc1C(=O)NCc1ccccc1OC(C)C [Example 144, 5-{2-amino-[1,2,4]triazolo[1,5-a]pyridin-7-yl}-2-methoxy-N-{[2-(propan-2-yloxy)phenyl]methyl}pyridine-3-carboxamide]	–	< 20 nM	20 to 200 nM	–
COc1ncc(-c2ccn3nc(N)nc3c2)cc1C(=O)NCc1ccc(F)cc1OCC1CC1 [Example 145, 5-{2-amino-[1,2,4]triazolo[1,5-a]pyridin-7-yl}-N-{[2-(cyclopropylmethoxy)-4-fluorophenyl]mehtyl}-2-methoxypyridine-3-carboxaamide]	–	< 20 nM	20 to 200 nM	–
COc1ncc(-c2ccn3nc(N)nc3c2)cc1C(=O)NCc1c(F)cccc1OCC1CCC1 [Example 146, 5-{2-amino-[1,2,4]triazolo[1,5-a]pyridin-7-yl}-N-{[2-(cyclobutylmethoxy)-6-fluorophenyl]methyl}-2-methoxypyridine-3-carboxamide]	< 20 nM	< 20 nM	–	–
COc1ncc(-c2ccn3nc(N)nc3c2)cc1C(=O)NCc1c(F)cccc1OCC1CC1 [Example 147, 5-{2-amino-[1,2,4]triazolo[1,5-a]pyridin-7-yl}-N-{[2-(cyclopropylmethoxy)-6-fluorophenyl]methyl}-2-methoxypyridine-3-carboxamide]	< 20 nM	< 20 nM	–	–
COc1ncc(-c2ccn3nc(N)nc3c2)cc1C(=O)NCc1ccccc1OC1CCCC1 [Example 148, 5-{2-amino-[1,2,4]triazolo[1,5-a]pyridin-7-yl}-N-{[2-(cyclopentyloxy)phenyl]methyl}-2-methoxypyridine-3-carboxamide]	< 20 nM	< 20 nM	–	–
COc1ncc(-c2ccn3nc(N)nc3c2)cc1C(=O)NCc1ccccc1OCC1CCC1 [Example 149, 5-{2-amino-[1,2,4]triazolo[1,5-a]pyridin-7-yl}-N-{[2-(cyclobutylmethoxy)phenyl]methyl}-2-methoxypyridine-3-carboxamide]	< 20 nM	< 20 nM	–	–
COc1ncc(-c2ccn3nc(N)nc3c2)cc1C(=O)NCc1ccccc1OC(F)(F)C(F)F [Example 150, 5-{2-amino-[1,2,4]triazolo[1,5-a]pyridin-7-yl}-2-methoxy-N-{[2-(1,1,2,2-tetrafluoroethoxy)phenyl]methyl}pyridine-3-carboxamide]	–	< 20 nM	20 to 200 nM	–
COc1ncc(-c2ccn3nc(N)nc3c2)cc1C(=O)NCc1ccccc1Sc1ccccc1CO [Example 151, 5-{2-amino-[1,2,4]triazolo[1,5-a]pyridin-7-yl}-N-[(2-{[2-(hydroxymethyl)phenyl]sulfanyl}phenyl)methyl]-2-methoxypyridine-3-carboxamide]	< 20 nM	< 20 nM	–	–
COc1ncc(-c2ccn3nc(N)nc3c2)cc1C(=O)NCc1c[nH]nc1-c1ccccc1 [Example 152, 5-{2-amino-[1,2,4]triazolo[1,5-a]pyridin-7-yl}-2-methoxy-N-[(3-phenyl-1H-pyrazol-4-yl)methyl]pyridine-3-carboxamide]	–	–	20 to 200 nM	IC50 [2, 6]: 20 to 200 nM
CCOc1ccccc1CNC(=O)c1cc(-c2ccn3nc(N)nc3c2)cnc1OC [Example 153, 5-{2-amino-[1,2,4]triazolo[1,5-a]pyridin-7-yl}-N-[(2-ethoxyphenyl)methyl]-2-methoxypyridine-3-carboxamide]	–	< 20 nM	20 to 200 nM	–
COc1ccccc1CNC(=O)c1cc(-c2ccn3nc(N)nc3c2)cnc1OC [Example 154, 5-{2-amino-[1,2,4]triazolo[1,5-a]pyridin-7-yl}-2-methoxy-N-[(2-methoxyphenyl)methyl]pyridine-3-carboxamide]	–	–	–	IC50 [1, 7]: > 200 nM; IC50 [2, 8]: > 200 nM
COc1ncc(-c2ccn3nc(N)nc3c2)cc1C(=O)NCc1c(Cl)cccc1Oc1ccccc1 [Example 155, 5-{2-amino-[1,2,4]triazolo[1,5-a]pyridin-7-yl}-N-[(2-chloro-6-phenoxyphenyl)methyl]-2-methoxypyridine-3-carboxamide]	< 20 nM	< 20 nM	–	–
COc1ccccc1[C@@H](C)NC(=O)c1cc(-c2ccn3nc(N)nc3c2)cnc1OC [Example 156, 5-{2-amino-[1,2,4]triazolo[1,5-a]pyridin-7-yl}-2-methoxy-N-[(1R)-1-(2-methoxyphenyl)ethyl]pyridine-3-carboxamide]	–	–	–	IC50 [1, 7]: > 200 nM; IC50 [2, 6]: 20 to 200 nM
COc1ncc(-c2ccn3nc(N)nc3c2)cc1C(=O)NCc1ccccc1Oc1ccccc1 [Example 158, 5-{2-amino-[1,2,4]triazolo[1,5-a]pyridin-7-yl}-2-methoxy-N-[(2-phenoxyphenyl)methyl]pyridine-3-carboxamide]	< 20 nM	< 20 nM	–	–
COc1ncc(-c2ccn3nc(N)nc3c2)cc1C(=O)N[C@H]1CCN(Cc2ccccc2)C1 [Example 159, 5-{2-amino-[1,2,4]triazolo[1,5-a]pyridin-7-yl}-N-[(3S)-1-benzylpyrrolidin-3-yl]-2-methoxypyridine-3-carboxamide]	–	–	20 to 200 nM	IC50 [2, 8]: > 200 nM
COc1ncc(-c2ccn3nc(N)nc3c2)cc1C(=O)NCc1cc(C(F)(F)F)ccc1Cl [Example 161, 5-{2-amino-[1,2,4]triazolo[1,5-a]pyridin-7-yl}-N-{[2-chloro-5-(trifluoromethyl)phenyl]methyl}-2-methoxypyridine-3-carboxamide]	–	< 20 nM	20 to 200 nM	–
COc1ncc(-c2ccn3nc(N)nc3c2)cc1C(=O)N(C)Cc1cccc(OC(F)(F)F)c1 [Example 162, 5-{2-amino-[1,2,4]triazolo[1,5-a]pyridin-7-yl}-2-methoxy-N-methyl-N-{[3-(trifluoromethoxy)phenyl]methyl}pyridine-3-carboxamide]	–	< 20 nM	20 to 200 nM	–
CC(C)Oc1c(F)cc(F)cc1CNC(=O)c1cc(-c2ccn3nc(N)nc3c2)cnc1Cl [Example 163, 5-{2-amino-[1,2,4]triazolo[1,5-a]pyridin-7-yl}-2-chloro-N-{[3,5-difluoro-2-(propan-2-yloxy)phenyl]methyl}pyridine-3-carboxamide]	–	< 20 nM	20 to 200 nM	–
Nc1nc2cc(-c3cnc(Cl)c(C(=O)NCc4cccc(OCC5CC5)c4)c3)ccn2n1 [Example 164]	–	–	20 to 200 nM	IC50 [2, 6]: 20 to 200 nM
Nc1nc2cc(-c3cnc(Cl)c(C(=O)NCc4ccccc4OC4CCOC4)c3)ccn2n1 (centres unmarked) [Example 165]	–	–	20 to 200 nM	IC50 [2, 6]: 20 to 200 nM
